Reference: patent EP0177710A1, “Phenyl urea derivatives” (BAYER AG, priority 1984, dated 1986)

System: Unkräutern in Mais
Assay: Post-emergence test / greenhouse
Assay type: in vivo
Conditions: post-emergence spray, control of weeds in maize, rated after three weeks; compared with comparison substance (A)
Excerpt: Post-emergence-Test/Gewächshaus
Lösungsmittel: 5 Gewichtsteile Aceton
Emulgator: 1 Gewichtsteil Alkylarylpolyglykolether
Zur Herstellung einer zweckmäßigen Wirkstoffzubereitung vermischt man 1 Gewichtsteil Wirkstoff mit der angegebenen Menge Lösungsmittel, gibt die angegebene Menge Emulgator zu und verdünnt das Konzentrat mit Wasser auf die gewünschte Konzentration.
Mit der Wirkstoffzubereitung spritzt man Testpflanzen, welche eine Höhe von 5 - 15 cm haben so, daß die jeweils gewünschten Wirkstoffmengen pro Flächeneinheit ausgebracht werden. Die Konzentration der Spritzbrühe wird so gewählt, daß in 2000 1 Wasser/ha die jeweils gewünschten Wirkstoffmengen ausgebracht werden. Nach drei Wochen wird der Schädigungsgrad der Pflanzen bonitiert in % Schädigung im Vergleich zur Entwicklung der unbehandelten Kontrolle.
Es bedeuten: • O % = keine Wirkung (wie unbehandelte Kontrolle) 100 % = totale Vernichtung

Structure (SMILES): CC(C)n1cc(Oc2ccc(NC(=O)N(C)C)cc2)cn1 [I-1]
- selektive herbizide Wirksamkeit: bessere selektive herbizide Wirksamkeit
